# Measurements: publication PMC5218480 (PLoS ONE, 2017)
# System: MV-4-11 cells
# Assay: Gene expression microarray analysis (Affymetrix PrimeView) and GSEA
# Assay type: cell-based, human
# Design: RFU PODN (11730768_x_at) / Fold change /veh PODN (11730768_x_at) / RFU LINC00158 (11744669_a_at) / Fold change /veh LINC00158 (11744669_a_at) / RFU DUSP10 (11751237_a_at) / Fold change /veh DUSP10 (11751237_a_at) / RFU ID3 (11757404_x_at) / Fold change /veh ID3 (11757404_x_at) / RFU PLEKHG5 (11737974_s_at) / Fold change /veh PLEKHG5 (11737974_s_at) / RFU LRRC4B (11730491_at) / Fold change /veh LRRC4B (11730491_at) / RFU GIMAP4 (11747438_a_at) / Fold change /veh GIMAP4 (11747438_a_at) / RFU KRT8 (11758183_x_at) / Fold change /veh KRT8 (11758183_x_at) / RFU CNN1 (11734310_a_at) / Fold change /veh CNN1 (11734310_a_at) / RFU VPS37D (11726825_at) / Fold change /veh VPS37D (11726825_at) / RFU C10orf10 (11716522_x_at) / Fold change /veh C10orf10 (11716522_x_at) / RFU KIR2DL2 /// KIR2DL4 /// KIR2DL5A /// KIR2DL5B /// KIR2DS1 /// KIR2DS2 /// KIR2DS3 /// KIR2DS4 /// KIR3DL3 /// KIR3DL3 /// KIR3DS1 (11738374_at) / Fold change /veh KIR2DL2 /// KIR2DL4 /// KIR2DL5A /// KIR2DL5B /// KIR2DS1 /// KIR2DS2 /// KIR2DS3 /// KIR2DS4 /// KIR3DL3 /// KIR3DL3 /// KIR3DS1 (11738374_at) / RFU C1QL1 (11718748_at) / Fold change /veh C1QL1 (11718748_at) / RFU TMPRSS4 (11747572_a_at) / Fold change /veh TMPRSS4 (11747572_a_at) / RFU HAMP (11756126_x_at) / Fold change /veh HAMP (11756126_x_at) / RFU RNFT2 (11725882_a_at) / Fold change /veh RNFT2 (11725882_a_at) / RFU NR4A2 (11747474_a_at) / Fold change /veh NR4A2 (11747474_a_at) / RFU ABCC12 (11746883_a_at) / Fold change /veh ABCC12 (11746883_a_at) / RFU TMEM136 (11760407_x_at) / Fold change /veh TMEM136 (11760407_x_at) / RFU CLDN22 /// WWC2 (11732394_at) / Fold change /veh CLDN22 /// WWC2 (11732394_at) / RFU HLA-DPB1 (11760878_x_at) / Fold change /veh HLA-DPB1 (11760878_x_at) / RFU SPINT1 (11716480_a_at) / Fold change /veh SPINT1 (11716480_a_at) / RFU GAP43 (11754022_s_at) / Fold change /veh GAP43 (11754022_s_at) / RFU A4GNT (11735810_at) / Fold change /veh A4GNT (11735810_at) / RFU PRB3 (11715151_x_at) / Fold change /veh PRB3 (11715151_x_at) / RFU TUBB4B (11761932_at) / Fold change /veh TUBB4B (11761932_at) / RFU CAPN14 (11732068_a_at) / Fold change /veh CAPN14 (11732068_a_at) / RFU TMCC2 (11721928_a_at) / Fold change /veh TMCC2 (11721928_a_at) / RFU IRGQ (11745062_a_at) / Fold change /veh IRGQ (11745062_a_at) / RFU FAM174B (11720279_a_at) / Fold change /veh FAM174B (11720279_a_at) / RFU TMPRSS4 (11748680_a_at) / Fold change /veh TMPRSS4 (11748680_a_at) / RFU FAM212B (11763350_a_at) / Fold change /veh FAM212B (11763350_a_at) / RFU PLEKHG5 (11743358_a_at) / Fold change /veh PLEKHG5 (11743358_a_at) / RFU ZSCAN30 (11745921_a_at) / Fold change /veh ZSCAN30 (11745921_a_at) / RFU CMKLR1 (11741424_a_at) / Fold change /veh CMKLR1 (11741424_a_at) / RFU LOC101060620 /// MAPK8IP1 (11723275_at) / Fold change /veh LOC101060620 /// MAPK8IP1 (11723275_at) / RFU SPTSSB (11747773_x_at) / Fold change /veh SPTSSB (11747773_x_at) / RFU PRSS12 (11739890_at) / Fold change /veh PRSS12 (11739890_at) / RFU BIN1 (11741810_x_at) / Fold change /veh BIN1 (11741810_x_at) / RFU WNT11 (11732464_a_at) / Fold change /veh WNT11 (11732464_a_at) / RFU C10orf10 (11716521_a_at) / Fold change /veh C10orf10 (11716521_a_at) / RFU C5orf56 (11738089_at) / Fold change /veh C5orf56 (11738089_at) / RFU CYB561 (11721691_x_at) / Fold change /veh CYB561 (11721691_x_at) / RFU ANKRD19P (11752326_a_at) / Fold change /veh ANKRD19P (11752326_a_at) / RFU OR2T12 /// OR2T33 /// OR2T8 (11738714_s_at) / Fold change /veh OR2T12 /// OR2T33 /// OR2T8 (11738714_s_at) / RFU VCAN (11748164_a_at) / Fold change /veh VCAN (11748164_a_at) / RFU JSRP1 (11732532_at) / Fold change /veh JSRP1 (11732532_at) / RFU KRTAP10-11 (11738290_x_at) / Fold change /veh KRTAP10-11 (11738290_x_at) / RFU MYO3A (11730013_a_at) / Fold change /veh MYO3A (11730013_a_at) / RFU EBF3 (11725865_a_at) / Fold change /veh EBF3 (11725865_a_at) / RFU CAMK2N1 (11719241_x_at) / Fold change /veh CAMK2N1 (11719241_x_at) / RFU C5orf56 (11738088_a_at) / Fold change /veh C5orf56 (11738088_a_at) / RFU OLFML3 (11715873_a_at) / Fold change /veh OLFML3 (11715873_a_at) / RFU LOC100653217 /// NTM (11731650_a_at) / Fold change /veh LOC100653217 /// NTM (11731650_a_at) / RFU MAPK11 (11762145_a_at) / Fold change /veh MAPK11 (11762145_a_at) / RFU FIZ1 (11724087_x_at) / Fold change /veh FIZ1 (11724087_x_at) / RFU OASL (11726364_x_at) / Fold change /veh OASL (11726364_x_at) / RFU SOX15 (11748057_x_at) / Fold change /veh SOX15 (11748057_x_at) / RFU CD79A (11719716_a_at) / Fold change /veh CD79A (11719716_a_at) / RFU HIST1H1D (11736915_at) / Fold change /veh HIST1H1D (11736915_at) / RFU CASKIN2 (11723855_a_at) / Fold change /veh CASKIN2 (11723855_a_at) / RFU LOC730098 (11760151_x_at) / Fold change /veh LOC730098 (11760151_x_at) / RFU OR4N2 (11742367_at) / Fold change /veh OR4N2 (11742367_at) / RFU PRRT2 (11749266_a_at) / Fold change /veh PRRT2 (11749266_a_at) / RFU SNX32 (11753110_a_at) / Fold change /veh SNX32 (11753110_a_at) / RFU CDHR5 (11726645_a_at) / Fold change /veh CDHR5 (11726645_a_at) / RFU RCAN1 (11760418_a_at) / Fold change /veh RCAN1 (11760418_a_at) / RFU FAM167A (11723789_a_at) / Fold change /veh FAM167A (11723789_a_at) / RFU FAM26E (11764081_at) / Fold change /veh FAM26E (11764081_at) / RFU ISYNA1 (11749810_s_at) / Fold change /veh ISYNA1 (11749810_s_at) / RFU ACY1 (11761880_at) / Fold change /veh ACY1 (11761880_at) / RFU 11764098_at / Fold change /veh 11764098_at / RFU SAMD14 (11745864_x_at) / Fold change /veh SAMD14 (11745864_x_at) / RFU NPB (11741838_a_at) / Fold change /veh NPB (11741838_a_at) / RFU TMPRSS6 (11731388_a_at) / Fold change /veh TMPRSS6 (11731388_a_at) / RFU KRTAP10-2 (11738614_at) / Fold change /veh KRTAP10-2 (11738614_at) / RFU ARHGAP8 /// PRR5-ARHGAP8 (11727945_x_at) / Fold change /veh ARHGAP8 /// PRR5-ARHGAP8 (11727945_x_at) / RFU KRTAP5-7 /// NADSYN1 (11734609_at) / Fold change /veh KRTAP5-7 /// NADSYN1 (11734609_at) / RFU RASL12 (11751679_a_at) / Fold change /veh RASL12 (11751679_a_at) / RFU CDKN2B (11736163_a_at) / Fold change /veh CDKN2B (11736163_a_at) / RFU PRF1 (11729649_at) / Fold change /veh PRF1 (11729649_at) / RFU, ZNF638 /// ZNF638-IT1 / Fold change vs veh, ZNF638 /// ZNF638-IT1 / RFU, PANK3 / Fold change vs veh, PANK3 / RFU, SH3YL1 / Fold change vs veh, SH3YL1 / RFU, ZEB2 / Fold change vs veh, ZEB2 / RFU, NRIP1 / Fold change vs veh, NRIP1 / RFU, PTTG1IP / Fold change vs veh, PTTG1IP / RFU, CAPN2 / Fold change vs veh, CAPN2 / RFU, MED14 / Fold change vs veh, MED14 / RFU, SNORA58 / Fold change vs veh, SNORA58 / RFU, C1orf63 / Fold change vs veh, C1orf63 / RFU, LRRFIP1 / Fold change vs veh, LRRFIP1 / RFU, NDUFAF7 / Fold change vs veh, NDUFAF7 / RFU, SLC12A2 / Fold change vs veh, SLC12A2 / RFU, IBTK / Fold change vs veh, IBTK / RFU, ESF1 / Fold change vs veh, ESF1 / Fold change vs veh, TMEM50B / RFU, TAOK1 / Fold change vs veh, TAOK1 / RFU, ACBD3 / Fold change vs veh, ACBD3 / RFU, TMA16 / Fold change vs veh, TMA16 / RFU, RWDD3 / Fold change vs veh, RWDD3 / RFU, BCAT1 / Fold change vs veh, BCAT1 / RFU, EDEM3 / Fold change vs veh, EDEM3 / RFU, TMEM33 / Fold change vs veh, TMEM33 / RFU, WDR75 / Fold change vs veh, WDR75 / RFU, AHCTF1 / Fold change vs veh, AHCTF1 / RFU, TFRC / Fold change vs veh, TFRC / RFU, ZDHHC17 / Fold change vs veh, ZDHHC17 / RFU, NOM1 / Fold change vs veh, NOM1 / RFU, ARL8B / Fold change vs veh, ARL8B / RFU, ZBTB11 / Fold change vs veh, ZBTB11 / RFU, TAMM41 / Fold change vs veh, TAMM41 / RFU, KIAA1704 /// LOC100996395 / Fold change vs veh, KIAA1704 /// LOC100996395 / RFU, ING1 / Fold change vs veh, ING1 / RFU, TRMT61B / Fold change vs veh, TRMT61B / RFU, FUBP3 / Fold change vs veh, FUBP3 / RFU, TP53 / Fold change vs veh, TP53 / RFU, TNKS2 / Fold change vs veh, TNKS2 / RFU, ZFP14 / Fold change vs veh, ZFP14 / RFU, ACTR2 / Fold change vs veh, ACTR2 / RFU, PPP3R1 / Fold change vs veh, PPP3R1 / RFU, PIK3R1 / Fold change vs veh, PIK3R1 / RFU, HNRNPA1 / Fold change vs veh, HNRNPA1 / RFU, RNF170 / Fold change vs veh, RNF170 / RFU, ZNF28 / Fold change vs veh, ZNF28 / RFU, RNGTT / Fold change vs veh, RNGTT / RFU, OGT / Fold change vs veh, OGT / RFU, BRD1 / Fold change vs veh, BRD1 / RFU, MARS / Fold change vs veh, MARS / RFU, ZNF655 / Fold change vs veh, ZNF655 / RFU, FAHD1 / Fold change vs veh, FAHD1 / RFU, BDP1 / Fold change vs veh, BDP1 / RFU, LRRCC1 / Fold change vs veh, LRRCC1 / RFU, ARID1A / Fold change vs veh, ARID1A / RFU, ZNF146 / Fold change vs veh, ZNF146 / RFU, ZNF330 / Fold change vs veh, ZNF330 / RFU, GPN3 / Fold change vs veh, GPN3 / RFU, C9orf123 / Fold change vs veh, C9orf123 / RFU, N4BP2L2 / Fold change vs veh, N4BP2L2 / RFU, ARFIP1 / Fold change vs veh, ARFIP1 / RFU, FAM179B / Fold change vs veh, FAM179B / RFU, BCL10 / Fold change vs veh, BCL10 / RFU, UHRF1BP1L / Fold change vs veh, UHRF1BP1L / RFU, BET1 / Fold change vs veh, BET1 / RFU, CNOT2 / Fold change vs veh, CNOT2 / RFU, ZNF268 / Fold change vs veh, ZNF268 / Fold change vs veh, ZNF507 / RFU, DGCR2 / Fold change vs veh, DGCR2 / RFU, WDSUB1 / Fold change vs veh, WDSUB1 / Fold change vs veh, HSP90B1 /// MIR3652 / RFU, ADSS / Fold change vs veh, ADSS / RFU, GK / Fold change vs veh, GK / RFU, ZNF148 / Fold change vs veh, ZNF148 / RFU, TAF9 / Fold change vs veh, TAF9 / RFU, SLC1A5 / Fold change vs veh, SLC1A5 / RFU, SLMO2 / Fold change vs veh, SLMO2 / RFU, ABCC4 / Fold change vs veh, ABCC4 / RFU, LOC101060439 /// RAP1B / Fold change vs veh, LOC101060439 /// RAP1B / RFU, RFX7 / Fold change vs veh, RFX7 / RFU, GTPBP10 / Fold change vs veh, GTPBP10 / RFU, CNEP1R1 / Fold change vs veh, CNEP1R1 / RFU, BIVM-ERCC5 /// ERCC5 / Fold change vs veh, BIVM-ERCC5 /// ERCC5 / RFU, ILF3 / Fold change vs veh, ILF3 / RFU 11762660_at / Fold change /veh 11762660_at / RFU VCAN (11757783_s_at) / Fold change /veh VCAN (11757783_s_at) / RFU DDX43 (11728927_at) / Fold change /veh DDX43 (11728927_at) / RFU KRT8 (11758188_x_at) / Fold change /veh KRT8 (11758188_x_at) / RFU NKD1 (11759106_at) / Fold change /veh NKD1 (11759106_at) / RFU SRD5A1 (11742802_a_at) / Fold change /veh SRD5A1 (11742802_a_at) / RFU TPSAB1 /// TPSB2 (11721975_s_at) / Fold change /veh TPSAB1 /// TPSB2 (11721975_s_at) / RFU GSTM3 (11746129_a_at) / Fold change /veh GSTM3 (11746129_a_at) / RFU IL23R (11737362_x_at) / Fold change /veh IL23R (11737362_x_at) / RFU TMEM51 (11727254_a_at) / Fold change /veh TMEM51 (11727254_a_at) / RFU PIWIL2 (11732686_x_at) / Fold change /veh PIWIL2 (11732686_x_at) / RFU ORM1 (11744905_x_at) / Fold change /veh ORM1 (11744905_x_at) / RFU CCDC152 (11743942_at) / Fold change /veh CCDC152 (11743942_at) / RFU ECM1 (11717891_a_at) / Fold change /veh ECM1 (11717891_a_at) / RFU IL23R (11748794_a_at) / Fold change /veh IL23R (11748794_a_at) / RFU TNFAIP8L3 (11732012_x_at) / Fold change /veh TNFAIP8L3 (11732012_x_at) / RFU MBOAT4 (11741988_at) / Fold change /veh MBOAT4 (11741988_at) / RFU 11764193_at / Fold change /veh 11764193_at / RFU TMEM53 (11763286_at) / Fold change /veh TMEM53 (11763286_at) / RFU MAGEB2 (11727129_at) / Fold change /veh MAGEB2 (11727129_at) / RFU TMEM200A (11744735_a_at) / Fold change /veh TMEM200A (11744735_a_at) / RFU CCDC152 (11751479_a_at) / Fold change /veh CCDC152 (11751479_a_at) / RFU FAM211A (11726209_a_at) / Fold change /veh FAM211A (11726209_a_at) / RFU RGS16 (11746705_a_at) / Fold change /veh RGS16 (11746705_a_at) / RFU VCAN (11755009_s_at) / Fold change /veh VCAN (11755009_s_at) / RFU RHOB (11743442_s_at) / Fold change /veh RHOB (11743442_s_at) / RFU RGS16 (11720943_a_at) / Fold change /veh RGS16 (11720943_a_at) / RFU RGS16 (11720944_at) / Fold change /veh RGS16 (11720944_at) / RFU, VPS4B / Fold change vs veh, VPS4B / RFU, CREB1 / Fold change vs veh, CREB1 / RFU, DNAJC13 / Fold change vs veh, DNAJC13 / RFU, GNAQ / Fold change vs veh, GNAQ / RFU, CDK5R1 / Fold change vs veh, CDK5R1 / RFU, ZRANB3 / Fold change vs veh, ZRANB3 / RFU, CUL4A / Fold change vs veh, CUL4A / RFU, CCNY / Fold change vs veh, CCNY / RFU, UFL1 / Fold change vs veh, UFL1 / RFU, COG3 / Fold change vs veh, COG3 / RFU, DIAPH2 / Fold change vs veh, DIAPH2 / RFU, SKA2 / Fold change vs veh, SKA2 / RFU, AFF3 / Fold change vs veh, AFF3 / RFU, LMF1 / Fold change vs veh, LMF1 / RFU, IPO11 / Fold change vs veh, IPO11 / RFU, DFFB / Fold change vs veh, DFFB / RFU, FOXP1 / Fold change vs veh, FOXP1 / RFU, CARD8 / Fold change vs veh, CARD8 / RFU, STRN3 / Fold change vs veh, STRN3 / RFU, ADK / Fold change vs veh, ADK / RFU, RASSF2 / Fold change vs veh, RASSF2 / RFU, WIPF1 / Fold change vs veh, WIPF1 / RFU, LARP1B / Fold change vs veh, LARP1B / RFU, RASA1 / Fold change vs veh, RASA1 / RFU, RB1 / Fold change vs veh, RB1 / RFU, PPFIA1 / Fold change vs veh, PPFIA1 / RFU, MAT2A / Fold change vs veh, MAT2A / RFU, CCT5 / Fold change vs veh, CCT5 / RFU, WDR92 / Fold change vs veh, WDR92 / RFU, CUX1 / Fold change vs veh, CUX1 / RFU, TTC7A / Fold change vs veh, TTC7A / RFU, TMEM135 / Fold change vs veh, TMEM135 / RFU, DEPTOR / Fold change vs veh, DEPTOR / RFU, CPM / Fold change vs veh, CPM / RFU, DNAJB6 / Fold change vs veh, DNAJB6 / RFU, CACNA2D3 / Fold change vs veh, CACNA2D3 / RFU, DTX4 / Fold change vs veh, DTX4 / RFU, TFCP2 / Fold change vs veh, TFCP2 / RFU, GMCL1 /// GMCL1P1 / Fold change vs veh, GMCL1 /// GMCL1P1 / RFU, AEBP2 / Fold change vs veh, AEBP2 / RFU, SNHG1 /// SNORD22 /// SNORD25 /// SNORD26 /// SNORD27 /// SNORD28 /// SNORD29 /// SNORD31 / Fold change vs veh, SNHG1 /// SNORD22 /// SNORD25 /// SNORD26 /// SNORD27 /// SNORD28 /// SNORD29 /// SNORD31 / Fold change (Aza/veh), C12orf56 (ProbeSet 11735607_a_at) / Fold change (ACY-1035/veh), C12orf56 (ProbeSet 11735607_a_at) / Fold change (Aza/veh), FGFR1OP (ProbeSet 11751329_s_at) / Fold change (ACY-1035/veh), FGFR1OP (ProbeSet 11751329_s_at) / Fold change (Aza/veh), VPS36 (ProbeSet 11739960_a_at) / Fold change (ACY-1035/veh), VPS36 (ProbeSet 11739960_a_at) / RFU SYPL1 (11715823_x_at) / Fold change /veh SYPL1 (11715823_x_at) / RFU IGFBP7 (11715501_s_at) / Fold change /veh IGFBP7 (11715501_s_at) / RFU REEP3 (11722064_at) / Fold change /veh REEP3 (11722064_at) / RFU IGLL1 (11728026_x_at) / Fold change /veh IGLL1 (11728026_x_at): dose or concentration left out as unconfirmed
# Settings: MV-4-11 cells, 48 hours
smiles,measurement,value
Nc1ncn([C@@H]2O[C@H](CO)[C@@H](O)[C@H]2O)c(=O)n1 [azacitidine],Fold change /veh MYO3A (11730013_a_at),0.99
